In PubChem BioAssay (NCI) one finds GI50 and TGI data, which are given here for eight compounds.

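Method: 48-hour compound exposure of cells in 96-well plates, five concentrations, linear interpolation of endpoints. Abbreviation: GI50, concentration required for 50% inhibition of growth. TGI is the concentration that stops growth completely.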 Bounds are passed on as bounds.

Among the test systems are MDA-MB-231 breast; TK-10 renal; A549 NSCLC; 786-0 renal; SK-OV-3 ovarian; HS 578T breast; RPMI-8226 leukemia; CAKI-1 renal.
Assay in all cases: NCI anticancer screen, dose series, 48 h

As to `C1=C2CNCC3=Cc4ccc5ccccc5c4OC23Oc2c1ccc1ccccc21`, the GI50 in the assay with MDA-MB-231 breast was 9.34 µM; with TK-10 renal it was 9.08 µM; in the assay with A549 NSCLC it was 4.48 µM; with 786-0 renal, 5.1 µM; in the assay on SK-OV-3 ovarian, 3.41 µM; with HS 578T breast, 2.24 µM. In addition, the figures for the GI50 in the assay on RPMI-8226 leukemia and in the assay on CAKI-1 renal were 5.44 µM and 3.29 µM, respectively. Moreover, the TGI in the assay on MDA-MB-231 breast is 27.2 µM; in the assay on TK-10 renal, 27.4 µM; with A549 NSCLC, 20.5 µM; with 786-0 renal, 31.5 µM; in the assay on SK-OV-3 ovarian, 12.8 µM; in the assay on HS 578T breast, 10.4 µM. The TGI with RPMI-8226 leukemia amounted to 65.3 µM; in the assay on CAKI-1 renal, 20.7 µM.

`CCCCCCCCCCCCCCCCS(=O)(=O)c1ccc(NN)cc1`: the TGI in the assay with MDA-MB-231 breast, with TK-10 renal, in the assay on A549 NSCLC, in the assay on 786-0 renal, with SK-OV-3 ovarian and in the assay with HS 578T breast was > 10 µM each time. Also, the TGI in the assay on RPMI-8226 leukemia and in the assay with CAKI-1 renal was > 10 µM throughout.

As to `COc1ccc2cc(-c3c(-c4ccncc4)nc(-c4ccc(S(C)=O)cc4C)n3C)ccc2c1` (configuration not stated), the GI50 with MDA-MB-231 breast is > 25 µM; in the assay with TK-10 renal it was 7.62 µM; in the assay on A549 NSCLC it was 15.5 µM; in the assay on 786-0 renal, 24.3 µM; with SK-OV-3 ovarian it was 11.3 µM; with HS 578T breast, > 25 µM. Also, the figures for the GI50 in the assay on RPMI-8226 leukemia and in the assay on CAKI-1 renal were 14.1 µM and 6.98 µM, respectively. Besides, the TGI in the assay on MDA-MB-231 breast, in the assay on TK-10 renal, in the assay on A549 NSCLC, in the assay on 786-0 renal, in the assay with SK-OV-3 ovarian and in the assay on HS 578T breast was > 25 µM in each case. Further, the TGI with RPMI-8226 leukemia and in the assay with CAKI-1 renal was > 25 µM throughout.

In the case of `Cc1ccc(-n2c3c(c4c(CN5CCOCC5)c(O)ccc42)CCc2ccccc2C3=O)cc1`, the GI50 is 37.8 µM in the assay on MDA-MB-231 breast; > 100 µM with TK-10 renal; 82.3 µM with A549 NSCLC; 91.5 µM with 786-0 renal; > 100 µM in the assay on SK-OV-3 ovarian; > 100 µM in the assay on HS 578T breast. The GI50 is 21 µM in the assay with RPMI-8226 leukemia and 94.1 µM in the assay with CAKI-1 renal. The TGI in the assay on MDA-MB-231 breast, in the assay on TK-10 renal, in the assay with A549 NSCLC, in the assay with 786-0 renal, with SK-OV-3 ovarian and in the assay with HS 578T breast was > 100 µM throughout. Moreover, the TGI in the assay on RPMI-8226 leukemia and in the assay with CAKI-1 renal was > 100 µM in each case.

As to `CCOCNc1ccc(N2C(=O)/C(=C/c3ccc(N(CC)CC)cc3)N=C2c2ccccc2)cc1`, the GI50 with MDA-MB-231 breast is 13 µM; in the assay with TK-10 renal, 22.3 µM; in the assay with A549 NSCLC, 11.4 µM; in the assay with 786-0 renal it was 5.64 µM; in the assay with SK-OV-3 ovarian it was 26.1 µM; in the assay on HS 578T breast, 17 µM. For the same compound, the GI50 in the assay on RPMI-8226 leukemia was 2.83 µM; in the assay on CAKI-1 renal it was 12.5 µM. The TGI with MDA-MB-231 breast is 49.3 µM; with TK-10 renal, > 100 µM; in the assay with A549 NSCLC, > 100 µM; in the assay on 786-0 renal it was 22.9 µM; in the assay on SK-OV-3 ovarian, 82.9 µM; with HS 578T breast, > 100 µM. Moreover, the TGI in the assay on RPMI-8226 leukemia is > 100 µM; in the assay with CAKI-1 renal, 56.8 µM.

Consider `O=C(O)C1C2C=CC(O2)C1C(=O)Nc1ncccn1` (configuration not stated), for which the TGI in the assay with MDA-MB-231 breast, in the assay with TK-10 renal, in the assay with A549 NSCLC, in the assay with 786-0 renal, in the assay on SK-OV-3 ovarian and with HS 578T breast was > 100 µM throughout. In addition, the TGI with RPMI-8226 leukemia and in the assay with CAKI-1 renal was > 100 µM in each case.

With `Fc1c[c-]c(-c2ccccn2)c(F)c1.[CH3-].[Pt+2].c1ccc(P(C[PH+](c2ccccc2)c2ccccc2)c2ccccc2)cc1`, the GI50 is 0.724 µM in the assay with MDA-MB-231 breast; 0.991 µM in the assay with TK-10 renal; 0.393 µM with A549 NSCLC; 0.75 µM in the assay with 786-0 renal; 0.816 µM with SK-OV-3 ovarian; 0.864 µM in the assay with HS 578T breast. The GI50 in the assay on RPMI-8226 leukemia was 0.262 µM; with CAKI-1 renal it was 0.869 µM. For the same compound, the TGI in the assay with MDA-MB-231 breast is 1.78 µM; with TK-10 renal it was 3.39 µM; with A549 NSCLC it was 4.7 µM; in the assay on 786-0 renal, 1.65 µM; with SK-OV-3 ovarian, 6.03 µM; with HS 578T breast, 2.9 µM. Moreover, the TGI came to 1.87 µM with RPMI-8226 leukemia and 1.96 µM with CAKI-1 renal.

In the case of `C=CC(=O)Nc1cccc(Nc2nc(Nc3ccc(OCCOC(F)F)cc3)ncc2F)c1`, the GI50 with MDA-MB-231 breast was 5.02 µM; in the assay on TK-10 renal, 0.515 µM; in the assay on A549 NSCLC, 3.56 µM; in the assay on 786-0 renal it was 1.32 µM; in the assay on SK-OV-3 ovarian it was 0.706 µM; with HS 578T breast, 2.13 µM. The GI50 is 2.48 µM with RPMI-8226 leukemia and 1.28 µM in the assay on CAKI-1 renal. Also, the TGI with MDA-MB-231 breast is 51.1 µM; with TK-10 renal it was 2.93 µM; in the assay with A549 NSCLC, 20.2 µM; with 786-0 renal it was 12.1 µM; in the assay on SK-OV-3 ovarian, 3.34 µM; in the assay with HS 578T breast it was 8.77 µM. Also, the results for the TGI in the assay with RPMI-8226 leukemia and in the assay on CAKI-1 renal were 14.7 µM and 10.1 µM, respectively.
